Data: patent US20240409585A1, “MACROCYCLIC IMMUNOMODULATORS” (priority 2021, published 2024)
Bridge positions count the residues as written; N and C are the ends. Square brackets hold non-standard residues; d marks the D form. Peptide text beside a SMILES is read from it. * marks the point of attachment. ξ: configuration not given here. Bip(4'-NHAc) = CC(=O)Nc1ccc(-c2ccc(C[C@H](N)C(=O)O)cc2)cc1; Phe(4-COOH) = N[C@@H](Cc1ccc(C(=O)O)cc1)C(=O)O; dPhe(3,4-F2) = N[C@H](Cc1ccc(F)c(F)c1)C(=O)O; Bip = N[C@@H](Cc1ccc(-c2ccccc2)cc1)C(=O)O; Phe(3-Me) = Cc1cccc(C[C@H](N)C(=O)O)c1; 3Pal = N[C@@H](Cc1cccnc1)C(=O)O; 4Pal = N[C@@H](Cc1ccncc1)C(=O)O; 3Thi = N[C@@H](Cc1ccsc1)C(=O)O; Cha = N[C@@H](CC1CCCCC1)C(=O)O; Cit = NC(=O)NCCC[C@H](N)C(=O)O; Ile(3ξ) = CCC(C)[C@H](N)C(=O)O; Thr(3ξ) = CC(O)[C@H](N)C(=O)O; Carboxymethyl = O=C(O)C*; NMeA = CN[C@@H](C)C(=O)O; Orn = NCCC[C@H](N)C(=O)O; Dab = NCC[C@H](N)C(=O)O; Dap = NC[C@H](N)C(=O)O; NH(CH2)3NH2 = NCCCN*; ξC = NC(CS)C(=O)O; Acm = CC(=O)NC*

target: T1, PE-labeled human PD-L1-Ig binding to Jurkat cell line over-expressing human PD-1 (Jurkat-PD-1) (Homo sapiens, UniProt Q15116); assay: Jurkat-PD-1 Cell Binding High-Content Screening Assay (CBA): Method 1; conditions: Jurkat-hPD-1 cells, PE-labeled PD-L1-Ig 20 nM final; read-out: Jurkat HPDL1 PD1 IC50 (uM) (Method 1)
T1 construct: expressed in transfected cells; host or cells: Jurkat
T1 sequence (Q15116 25-288): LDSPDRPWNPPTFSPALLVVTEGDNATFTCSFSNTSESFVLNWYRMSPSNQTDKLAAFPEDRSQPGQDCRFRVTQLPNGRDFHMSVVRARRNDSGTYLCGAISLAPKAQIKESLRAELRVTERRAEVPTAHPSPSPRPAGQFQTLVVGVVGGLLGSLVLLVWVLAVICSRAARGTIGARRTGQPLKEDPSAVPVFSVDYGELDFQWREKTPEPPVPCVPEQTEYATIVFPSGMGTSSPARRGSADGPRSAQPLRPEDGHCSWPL

| IC50 [µM] | SMILES |
| --- | --- |
| 0.25 | CC(=O)NCSC[C@@H]1NC(=O)[C@H](CC(C)C)NC(=O)[C@H](CC(N)=O)NC(=O)[C@@H](CC(C)C)NC(=O)[C@H](C)N(C)C(=O)[C@H](C(C)C)NC(=O)[C@H](Cc2ccc(-c3ccccc3)cc2)NC(=O)[C@H](CSCNC(C)=O)NC(=O)[C@H](Cc2cccc(C)c2)NC(=O)[C@H](CC(=O)O)NC(=O)[C@H](Cc2ccncc2)NC(=O)[C@H](Cc2ccc(OCC(=O)O)cc2)NC(=O)CSCC(C(=O)NCC(N)=O)NC(=O)[C@H](CO)NC1=O (stereo partly drawn) [Compound 1887] ({CH2CO}-Y(Carboxymethyl)[4Pal]D[Phe(3-Me)]C(Acm)[Bip]V[NMeA][dL]NLC(Acm)S[ξC]G-NH2; thioether N-14) |
| 0.17 | CC(C)C[C@H]1NC(=O)[C@H](C)N(C)C(=O)[C@H](CCC(=O)O)NC(=O)[C@H](Cc2ccc(-c3ccccc3)cc2)NC(=O)[C@H](C(C)C)NC(=O)[C@H](Cc2c[nH]c3ccccc23)NC(=O)[C@H](CC(N)=O)NC(=O)[C@H](Cc2ccc(O)cc2)NC(=O)[C@H](Cc2ccncc2)NC(=O)CSC[C@@H](C(=O)N[C@@H](C)C(N)=O)NC(=O)[C@H](C(C)O)NC(=O)[C@H](C(C)C)NC(=O)[C@H](CC2CCCCC2)NC(=O)[C@H](CCN)NC1=O (stereo partly drawn) [Compound 2088] ({CH2CO}-[4Pal]YNWV[Bip]E[NMeA][dL][Dab][Cha]V[Thr(3ξ)]CA-NH2; thioether N-14) |
| 0.02 | CCC(C)[C@@H]1NC(=O)[C@H](Cc2ccc(-c3ccccc3)cc2)NC(=O)[C@H](C(C)C)NC(=O)[C@H](Cc2cccc(C)c2)NC(=O)[C@H](CC(=O)O)NC(=O)[C@H](Cc2ccc(OCC(=O)O)cc2)NC(=O)[C@H](C(C)O)NC(=O)CSC[C@@H](C(N)=O)NC(=O)[C@H](C(C)O)NC(=O)[C@H](C(C)C)NC(=O)[C@H](CC2CCCCC2)NC(=O)[C@H](CCN)NC(=O)[C@@H](CC(C)C)NC(=O)[C@H](C)N(C)C1=O (stereo partly drawn) [Compound 2250] ({CH2CO}-[Thr(3ξ)]Y(Carboxymethyl)D[Phe(3-Me)]V[Bip][Ile(3ξ)][NMeA][dL][Dab][Cha]V[Thr(3ξ)]C-NH2; thioether N-14) |
| 0.02 | CCC(C)[C@@H]1NC(=O)[C@H](Cc2ccc(-c3ccccc3)cc2)NC(=O)[C@H](C(C)C)NC(=O)[C@H](Cc2c[nH]c3ccccc23)NC(=O)[C@H](CC(=O)O)NC(=O)[C@H](Cc2ccc(O)cc2)NC(=O)[C@H](Cc2cccnc2)NC(=O)CSC[C@@H](C(=O)N[C@@H](C)C(N)=O)NC(=O)[C@H](C(C)O)NC(=O)[C@H](C(C)C)NC(=O)[C@H](CC2CCCCC2)NC(=O)[C@H](CCN)NC(=O)[C@@H](CC(C)C)NC(=O)[C@H](C)N(C)C1=O (stereo partly drawn) [Compound 2052] ({CH2CO}-[3Pal]YDWV[Bip][Ile(3ξ)][NMeA][dL][Dab][Cha]V[Thr(3ξ)]CA-NH2; thioether N-14) |
| 0.31 | CCC(C)[C@@H]1NC(=O)[C@H](Cc2ccc(-c3ccccc3)cc2)NC(=O)[C@H](C(C)C)NC(=O)[C@H](Cc2cccc(C)c2)NC(=O)[C@H](CC(=O)O)NC(=O)[C@H](Cc2ccc(OCC(=O)O)cc2)NC(=O)[C@H](Cc2ccncc2)NC(=O)CSC[C@@H](C(=O)N[C@@H](CO)C(=O)O)NC(=O)[C@H](CO)NC(=O)[C@H](C(C)C)NC(=O)[C@H](CC2CCCCC2)NC(=O)[C@H](CCN)NC(=O)[C@@H](CC(C)C)NC(=O)[C@H](C)N(C)C1=O (stereo partly drawn) [Compound 2236] ({CH2CO}-[4Pal]Y(Carboxymethyl)D[Phe(3-Me)]V[Bip][Ile(3ξ)][NMeA][dL][Dab][Cha]VSCS-OH; thioether N-14) |
| 0.01 | CC(=O)NCCCC[C@@H]1NC(=O)[C@H](C(C)C)NC(=O)[C@H](CC2CCCCC2)NC(=O)[C@H](CCN)NC(=O)[C@@H](CC(C)C)NC(=O)[C@H](C)N(C)C(=O)[C@H](CCC(N)=O)NC(=O)[C@H](Cc2ccc(-c3ccccc3)cc2)NC(=O)[C@H](Cc2ccc(OCC(=O)O)cc2)NC(=O)[C@H](Cc2cccc(C)c2)NC(=O)[C@H](CC(=O)O)NC(=O)[C@H](Cc2ccc(OCC(=O)O)cc2)NC(=O)[C@H](Cc2ccncc2)NC(=O)CSC[C@@H](C(=O)N[C@@H](CCN)C(N)=O)NC1=O [Compound 2203] ({CH2CO}-[4Pal]Y(Carboxymethyl)D[Phe(3-Me)]Y(Carboxymethyl)[Bip]Q[NMeA][dL][Dab][Cha]VK(Ac)C[Dab]-NH2; thioether N-14) |

Continued, compound first:

| SMILES | IC50 [µM] |
| --- | --- |
| CC(C)C[C@@H]1NC(=O)[C@H](CCCNC(=N)N)NC(=O)[C@@H](Cc2ccc(F)c(F)c2)NC(=O)[C@H](C)N(C)C(=O)[C@H](CCCNC(=N)N)NC(=O)[C@H](Cc2ccc(-c3ccccc3)cc2)NC(=O)[C@H](C(C)C)NC(=O)[C@H](Cc2c[nH]c3ccccc23)NC(=O)[C@H](CC(=O)O)NC(=O)[C@H](Cc2ccc(O)cc2)NC(=O)[C@H](Cc2ccccc2)NC(=O)CSC[C@@H](C(=O)N[C@@H](C)C(N)=O)NC(=O)[C@H]([C@@H](C)O)NC(=O)[C@H](C(C)C)NC1=O [Compound 1103] ({CH2CO}-FYDWV[Bip]R[NMeA][dPhe(3,4-F2)]RLVTCA-NH2; thioether N-14) | 0.69 |
| CC(C)C[C@@H]1NC(=O)[C@H](Cc2c[nH]c3ccccc23)NC(=O)[C@H](CC(=O)O)NC(=O)[C@H](Cc2ccc(O)cc2)NC(=O)[C@H](Cc2ccccc2)NC(=O)CSC[C@@H](C(=O)NCC(N)=O)NC(=O)[C@H](CO)NC(=O)[C@H](C(C)C)NC(=O)[C@H](CC(C)C)NC(=O)[C@H](CC(=O)O)NC(=O)[C@H](CC(C)C)NC(=O)[C@H](C)N(C)C(=O)[C@H](C(C)C)NC(=O)[C@H](Cc2ccc(-c3ccccc3)cc2)NC1=O [Compound 1824] ({CH2CO}-FYDWL[Bip]V[NMeA]LDLVSCG-NH2; thioether N-14) | 0.63 |
| CC(=O)Nc1ccc(-c2ccc(C[C@@H]3NC(=O)[C@H](C(C)C)NC(=O)[C@H](Cc4c[nH]c5ccccc45)NC(=O)[C@H](CC(=O)O)NC(=O)[C@H](Cc4ccc(O)cc4)NC(=O)[C@H](Cc4ccccc4)NC(=O)CSC[C@@H](C(=O)N[C@@H](C)C(N)=O)NC(=O)[C@H]([C@@H](C)O)NC(=O)[C@H](C(C)C)NC(=O)[C@H](CC(C)C)NC(=O)[C@H](CCCNC(=N)N)NC(=O)[C@@H](CC(C)C)NC(=O)[C@H](C)N(C)C(=O)[C@H](CCCNC(=N)N)NC3=O)cc2)cc1 [Compound 1067] ({CH2CO}-FYDWV[Bip(4'-NHAc)]R[NMeA][dL]RLVTCA-NH2; thioether N-14) | 0.12 |
| CC(C)C[C@@H]1NC(=O)[C@H](CCN)NC(=O)[C@@H](CC(C)C)NC(=O)[C@H](C)N(C)C(=O)[C@H](Cc2cnc[nH]2)NC(=O)[C@H](Cc2ccc(-c3ccccc3)cc2)NC(=O)[C@H](C(C)C)NC(=O)[C@H](Cc2c[nH]c3ccccc23)NC(=O)[C@H](CC(=O)O)NC(=O)[C@H](Cc2ccc(O)cc2)NC(=O)[C@H](CC(N)=O)NC(=O)CSC[C@@H](C(=O)N[C@@H](C)C(N)=O)NC(=O)[C@H]([C@@H](C)O)NC(=O)[C@H](C(C)C)NC1=O [Compound 1302] ({CH2CO}-NYDWV[Bip]H[NMeA][dL][Dab]LVTCA-NH2; thioether N-14) | 0.02 |
| CC(C)C[C@@H]1NC(=O)[C@H](CCN)NC(=O)[C@@H](CC(C)C)NC(=O)[C@H](C)N(C)C(=O)[C@H](CCCNC(N)=O)NC(=O)[C@H](Cc2ccc(-c3ccccc3)cc2)NC(=O)[C@H](C(C)C)NC(=O)[C@H](Cc2c[nH]c3ccccc23)NC(=O)[C@H](CC(=O)O)NC(=O)[C@H](Cc2ccc(OCC(=O)O)cc2)NC(=O)[C@H](CN)NC(=O)CSC[C@@H](C(=O)N[C@@H](C)C(N)=O)NC(=O)[C@H]([C@@H](C)O)NC(=O)[C@H](C(C)C)NC1=O [Compound 1566] ({CH2CO}-[Dap]Y(Carboxymethyl)DWV[Bip][Cit][NMeA][dL][Dab]LVTCA-NH2; thioether N-14) | 0.04 |
| CC(=O)NCCCC[C@@H]1NC(=O)[C@H](C(C)C)NC(=O)[C@H](CC2CCCCC2)NC(=O)[C@H](CCN)NC(=O)[C@@H](CC(C)C)NC(=O)[C@H](C)N(C)C(=O)[C@H](CCC(N)=O)NC(=O)[C@H](Cc2ccc(-c3ccccc3)cc2)NC(=O)[C@H](C(C)C)NC(=O)[C@H](Cc2cccc(C)c2)NC(=O)[C@H](CC(=O)O)NC(=O)[C@H](Cc2ccc(OCC(=O)O)cc2)NC(=O)[C@H](Cc2ccc(OCC(=O)O)cc2)NC(=O)CSC[C@@H](C(=O)NCCCN)NC1=O [Compound 2265] ({CH2CO}-Y(Carboxymethyl)Y(Carboxymethyl)D[Phe(3-Me)]V[Bip]Q[NMeA][dL][Dab][Cha]VK(Ac)C-{NH(CH2)3NH2}; thioether N-14) | 0.02 |
| CC(C)C[C@@H]1NC(=O)[C@H](CCCNC(=N)N)NC(=O)[C@@H](CC(C)C)NC(=O)[C@H](C)N(C)C(=O)[C@H](CCCN)NC(=O)[C@H](Cc2ccc(-c3ccccc3)cc2)NC(=O)[C@H](C(C)C)NC(=O)[C@H](Cc2c[nH]c3ccccc23)NC(=O)[C@H](CC(=O)O)NC(=O)[C@H](Cc2ccc(O)cc2)NC(=O)[C@H](CC(N)=O)NC(=O)CSC[C@@H](C(=O)N[C@@H](C)C(N)=O)NC(=O)[C@H]([C@@H](C)O)NC(=O)[C@H](C(C)C)NC1=O [Compound 1288] ({CH2CO}-NYDWV[Bip][Orn][NMeA][dL]RLVTCA-NH2; thioether N-14) | 0.08 |
| CC[C@H](C)[C@@H]1NC(=O)[C@H](Cc2ccc(-c3ccccc3)cc2)NC(=O)[C@H](C(C)C)NC(=O)[C@H](Cc2c[nH]c3ccccc23)NC(=O)[C@H](CC(=O)O)NC(=O)[C@H](Cc2ccc(O)cc2)NC(=O)[C@H](CC(N)=O)NC(=O)CSC[C@@H](C(=O)N[C@@H](C)C(N)=O)NC(=O)[C@H]([C@@H](C)O)NC(=O)[C@H](C(C)C)NC(=O)[C@H](CC2CCCCC2)NC(=O)[C@H](CCCNC(=N)N)NC(=O)[C@@H](CC(C)C)NC(=O)[C@H](C)N(C)C1=O [Compound 1495] ({CH2CO}-NYDWV[Bip]I[NMeA][dL]R[Cha]VTCA-NH2; thioether N-14) | 0.04 |
| Cc1cccc(C[C@@H]2NC(=O)[C@H](CC(=O)O)NC(=O)[C@H](Cc3ccc(OCC(=O)O)cc3)NC(=O)[C@H](Cc3ccsc3)NC(=O)CSC[C@@H](C(=O)N[C@@H](CCN)C(N)=O)NC(=O)[C@H](C(C)O)NC(=O)[C@H](C(C)C)NC(=O)[C@H](CC3CCCCC3)NC(=O)[C@H](CCN)NC(=O)[C@@H](CC(C)C)NC(=O)[C@H](C)N(C)C(=O)[C@H](Cc3ccc(OCC(=O)O)cc3)NC(=O)[C@H](Cc3ccc(-c4ccccc4)cc3)NC(=O)[C@H](Cc3ccc(C(=O)O)cc3)NC2=O)c1 (stereo partly drawn) [Compound 2128] ({CH2CO}-[3Thi]Y(Carboxymethyl)D[Phe(3-Me)][Phe(4-COOH)][Bip]Y(Carboxymethyl)[NMeA][dL][Dab][Cha]V[Thr(3ξ)]C[Dab]-NH2; thioether N-14) | 0.01 |
